Measured values reported in paper PMC8396542, “Iterated Virtual Screening-Assisted Antiviral and Enzyme Inhibition Assays Reveal the Discovery of Novel Promising Anti-SARS-CoV-2 with Dual Activity” (International Journal of Molecular Sciences, 2021).

Legend:
[1] = target: T1, SARS-CoV-2 M^pro (3CL Protease, 3CL^pro) (Severe acute respiratory syndrome coronavirus 2, UniProt P0DTD1); assay: biochemical
T1 construct: gene rep; untagged enzyme from BPS Bioscience kit; mature main protease nsp5 cut from replicase polyprotein 1ab (pp1a/pp1ab)

human furin = target: T2, human furin (Homo sapiens, UniProt P09958); assay: fluorogenic protease assay; format: biochemical
T2 construct: recombinant furin from BPS Bioscience furin protease assay kit

human TMPRSS2 = target: T3, human TMPRSS2 (Homo sapiens, UniProt O15393); assay: fluorogenic protease assay; format: biochemical
T3 construct: enzyme from BPS Bioscience TMPRSS2 fluorogenic assay kit
T3 sequence (O15393 109-492 limits assumed): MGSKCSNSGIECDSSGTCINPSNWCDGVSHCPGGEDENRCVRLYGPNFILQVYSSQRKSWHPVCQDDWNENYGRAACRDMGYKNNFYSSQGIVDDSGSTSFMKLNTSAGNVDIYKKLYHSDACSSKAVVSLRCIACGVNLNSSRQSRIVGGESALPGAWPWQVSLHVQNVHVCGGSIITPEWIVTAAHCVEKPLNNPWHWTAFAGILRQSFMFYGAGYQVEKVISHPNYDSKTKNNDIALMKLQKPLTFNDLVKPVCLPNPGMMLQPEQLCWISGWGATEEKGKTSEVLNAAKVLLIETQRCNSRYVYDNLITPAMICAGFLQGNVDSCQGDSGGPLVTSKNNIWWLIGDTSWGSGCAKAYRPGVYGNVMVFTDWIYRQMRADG

T2 sequence (P09958 108-715): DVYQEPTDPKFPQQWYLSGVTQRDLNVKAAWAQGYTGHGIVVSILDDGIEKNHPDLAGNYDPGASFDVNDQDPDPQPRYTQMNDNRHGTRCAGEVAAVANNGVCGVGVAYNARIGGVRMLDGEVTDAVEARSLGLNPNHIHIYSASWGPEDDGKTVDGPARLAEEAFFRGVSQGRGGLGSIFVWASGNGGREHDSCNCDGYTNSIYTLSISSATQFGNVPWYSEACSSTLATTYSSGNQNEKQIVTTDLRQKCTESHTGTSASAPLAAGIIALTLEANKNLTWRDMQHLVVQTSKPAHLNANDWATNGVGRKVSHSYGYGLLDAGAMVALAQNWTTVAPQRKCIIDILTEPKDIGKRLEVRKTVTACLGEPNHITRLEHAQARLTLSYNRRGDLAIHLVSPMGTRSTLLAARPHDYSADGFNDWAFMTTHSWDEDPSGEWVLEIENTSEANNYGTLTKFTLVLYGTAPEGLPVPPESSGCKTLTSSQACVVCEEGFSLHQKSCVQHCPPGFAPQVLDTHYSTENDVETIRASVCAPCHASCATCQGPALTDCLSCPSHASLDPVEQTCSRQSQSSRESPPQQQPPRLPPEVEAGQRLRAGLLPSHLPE

Compound: N=C(N/N=C/c1ccncc1)c1nonc1NCNc1nonc1C(=N)N/N=C/c1ccncc1 [M3]
- IC50 [1]: 0.013 ± 0.003 µM
- IC50 (human furin): 0.09 ± 0.002 µM
- IC50 (human TMPRSS2): 0.05 ± 0.002 µM
